Reference: publication PMC11983102, “Conjugation to a transferrin receptor 1-binding Bicycle peptide enhances ASO and siRNA potency in skeletal and cardiac muscles” (Nucleic Acids Research, 2025)
Numbered stars: 1 amine (or outer) side, 2 acyl side, 3 side chain; on linkers, the order of the positions; unused ones are H or OH. Bridge positions count the residues as written; N and C are the ends. Peptide text beside a SMILES is read from it. TATB = O=C(C[*:1])N1CN(C(=O)C[*:2])CN(C(=O)C[*:3])C1

How the values were obtained:
human TfR1 = biological target: T1, human TfR1 (Homo sapiens, UniProt P02786); assay: SPR binding of Bicycle peptides and conjugates to human TfR1; details: SPR (Biacore), human TfR1 captured on SA chip, 5-point single cycle kinetics, PBS-P+ 1% DMSO pH 7.4; geometric mean; unconjugated Bicycle peptides
T1 construct: received from Bicycle Therapeutics as His6-tagged TfR1 (a.a. 89-760) (ACROBiosystems, CD1-H5243 and TfR-C524a); His6; purchased ACROBiosystems CD1-H5243
T1 sequence (P02786 89-760): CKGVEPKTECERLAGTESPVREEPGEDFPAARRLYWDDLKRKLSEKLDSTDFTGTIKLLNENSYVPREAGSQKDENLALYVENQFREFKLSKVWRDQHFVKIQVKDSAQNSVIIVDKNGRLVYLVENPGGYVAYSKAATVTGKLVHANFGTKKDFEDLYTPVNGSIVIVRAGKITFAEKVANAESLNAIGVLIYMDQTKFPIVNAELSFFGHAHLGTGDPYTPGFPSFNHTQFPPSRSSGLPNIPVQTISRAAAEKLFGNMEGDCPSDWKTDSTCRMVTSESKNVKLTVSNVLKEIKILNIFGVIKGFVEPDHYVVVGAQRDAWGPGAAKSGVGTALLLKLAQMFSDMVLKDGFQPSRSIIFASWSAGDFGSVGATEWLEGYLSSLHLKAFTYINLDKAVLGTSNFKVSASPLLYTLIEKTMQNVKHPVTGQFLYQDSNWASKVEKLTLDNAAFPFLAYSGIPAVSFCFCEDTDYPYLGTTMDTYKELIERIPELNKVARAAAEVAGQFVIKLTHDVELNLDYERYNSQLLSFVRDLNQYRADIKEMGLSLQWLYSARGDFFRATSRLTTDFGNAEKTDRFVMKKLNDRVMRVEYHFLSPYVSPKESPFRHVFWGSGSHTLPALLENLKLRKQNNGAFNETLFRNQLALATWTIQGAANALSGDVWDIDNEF
Experimental: Biacore experiments were performed to determine ka (M^-1s^-1), kd (s^-1), KD (nM) values of various peptides binding to TfR1. […] SPR binding analysis was performed on Biacore T200 and Biacore 8K+ (Cytiva). Human TfR1 and randomly biotinylated cynomolgus monkey TfR1 were captured on Series S Sensor Chip SA (BR100531, Cytiva) at levels of approximately 1000 RU. Using an appropriate top concentration, Bicycle peptides were screened in a 5-point titration curve in single cycle kinetics format at 30 ml/minute. The running buffer was PBS-P^+, 1% DMSO at pH 7.4. The data was solvent-corrected for DMSO bulk effects. In addition, all data was double corrected against the reference flow cell and matched buffer blanks. Data processing and kinetic fitting were performed using Biacore T200 Evaluation Software or Biacore Insight Evaluation. The data was fitted using the 1:1 binding model or steady-state affinity model where appropriate. The geometric mean (geomean) KD (nM) for binders was calculated by transforming unique KD values by log10, arithmetic-mean-averaging the transformed values, and subsequently anti-log-transforming the averaged value.

Mouse plasma stability = format: in vitro ADME
Experimental: An alanine scan was performed to identify core residues involved in binding to the protein and solvent-facing residues which could be used to tune molecular properties, followed by substitutions with non-natural amino acids to identify suitable replacements at each position. In addition, peptides were synthesized to investigate the removal of the N- and C-terminal alanines, capping the N-terminal with an acetyl group, and to examine the effects of combinations with N- and C-terminal extensions. Affinity was measured using either SPR or fluorescence polarization (FP) assays, and plasma stability in mouse was determined for selected examples. Series of analogues with the azidolysine (K(N3)) or azidopropanoic acid (AzPro) were prepared on the C- and N-terminal of the Bicycle molecules, respectively. These were used to conjugate to an ASO or siRNA for further profiling.

| Structure (SMILES) | Kd (human TfR1) [nM] | half-life (Mouse plasma stability) [h] |
| --- | --- | --- |
| CC[C@H](C)[C@@H]1NC(=O)[C@@H]2CSCC(=O)N3CN(CN(C3)C(=O)CSC[C@@H](C(=O)N[C@@H](C)C(N)=O)NC(=O)[C@H](Cc3ccc(O)cc3)NC(=O)[C@H](CO)NC1=O)C(=O)CSC[C@H](NC(=O)[C@H](C)N)C(=O)N[C@@H](CO)C(=O)N1C[C@H](O)C[C@H]1C(=O)N[C@@H](CC(=O)O)C(=O)N[C@@H](C)C(=O)N[C@@H](Cc1c[nH]cn1)C(=O)N[C@@H](CC(C)C)C(=O)NCC(=O)N2 [compound 16047] | 49 |  |
| CC[C@H](C)[C@@H]1NC(=O)[C@@H]2CSCC(=O)N3CN(CN(C3)C(=O)CSC[C@@H](C(=O)N[C@@H](C)C(N)=O)NC(=O)[C@H](Cc3ccc4ccccc4c3)NC(=O)[C@H](CO)NC1=O)C(=O)CSC[C@H](NC(=O)[C@H](C)N)C(=O)N[C@@H](CO)C(=O)N1CCC[C@H]1C(=O)N[C@@H](CC(=O)O)C(=O)N[C@@H](C)C(=O)N[C@@H](Cc1c[nH]cn1)C(=O)N[C@@H](CC(C)C)C(=O)NCC(=O)N2 [compound 16031] | 68 |  |
| CC[C@H](C)[C@@H]1NC(=O)[C@@H]2CSCC(=O)N3CN(CN(C3)C(=O)CSC[C@@H](C(=O)N[C@@H](C)C(N)=O)NC(=O)[C@H](Cc3ccc(O)cc3)NC(=O)[C@H](CO)NC1=O)C(=O)CSC[C@H](NC(=O)[C@H](C)N)C(=O)N[C@@H](CO)C(=O)N1CCC[C@H]1C(=O)N[C@@H](CC(=O)O)C(=O)N[C@@H](C)C(=O)N[C@@H](Cc1c[nH]cn1)C(=O)N[C@@H](CC(C)C)C(=O)NCC(=O)N2 [BCY15468] | 143 |  |
| CC[C@H](C)[C@@H]1NC(=O)[C@@H]2CSCC(=O)N3CN(CN(C3)C(=O)CSC[C@@H](C(=O)N[C@@H](C)C(N)=O)NC(=O)[C@H](Cc3cccc4ccccc34)NC(=O)[C@H](CO)NC1=O)C(=O)CSC[C@H](NC(=O)[C@H](C)N)C(=O)N[C@@H](CO)C(=O)N1CCC[C@H]1C(=O)N[C@@H](CC(=O)O)C(=O)N[C@@H](C)C(=O)N[C@@H](Cc1c[nH]cn1)C(=O)N[C@@H](CC(C)C)C(=O)NCC(=O)N2 [compound 16029] | 60 |  |
| CC[C@H](C)[C@@H]1NC(=O)[C@@H]2CSCC(=O)N3CN(CN(C3)C(=O)CSC[C@H](NC(C)=O)C(=O)N[C@@H](CO)C(=O)N3CCC[C@H]3C(=O)N[C@@H](CC(=O)O)C(=O)N[C@@H](C)C(=O)N[C@@H](Cc3c[nH]cn3)C(=O)N[C@@H](CC(C)C)C(=O)NCC(=O)N2)C(=O)CSC[C@@H](C(N)=O)NC(=O)[C@H](Cc2ccc(O)cc2)NC(=O)[C@H](CO)NC1=O [BCY15891] (Ac-CSPDAHLGCISYC-NH2; linker 1-9-13 via TATB) |  | 22.7 |
